In assay [1] the target is IDH1 R132H enzyme (Homo sapiens (Human), UniProt O75874, R132H). The experiment in a line: Mutant IDH1 R132H biochemical assay. To be noted: NADPH consumption, luminescent readout; 1.5 nM enzyme, 1 μM NADPH, 250 μM α-KG, 30 minutes, 32° C. The procedure:
NADPH consumption was measured by luminescent readout. […] The final DMSO concentration was 2.4%. […] Luminescence was measured on a luminescent reader (10 seconds measuring time, 1 second integration period, 30% sensitivity). The decrease in luminescence is proportional to mIDH1 activity. IC50 values are determined by interpolation from plots of relative luminescence versus inhibitor concentration.

The target in assay [2] is mutated isocitrate dehydrogenase (mIDH) protein, LN229 R132H cells (Homo sapiens (Human), UniProt O75874, R132H). The experiment in a line: Mutant IDH1 cellular assay (2-HG in medium of LN229 R132H cells). It is filed as cell-based. To be noted: 2-HG levels in medium, 24 hours. The method, then:
Mutant IDH1 Cellular Assay
They were harvested by trypsin and seeded into 96-well plates. Cells were incubated overnight at 37° C. in 5% CO2. The next day test compounds were added to each cell well. The final concentration of DMSO was 0.1% and DMSO controls were included. The plates were then placed in an incubator for 24 hours.
2-HG was measured according to Balss et al. (Acta Neuropathol (2012) 124: 883-891). Briefly, HClO4 was added to each well and the plates were centrifuged. Aliquots are removed and incubated with hydroxyglutarate dehydrogenase (HGDH), diaphorase, NAD+, and resazurin. The conversion of resazurin to resorufin was detected by fluorescence spectroscopy at Ex 540 nm Em 600 nm. The increase in fluorescence is proportional to 2-HG production. IC50 values are determined by interpolation from plots of relative fluorescence vs inhibitor concentration.

Structures are written as SMILES.

IDH1 R132H enzyme, sequence (O75874 whole entry R132H): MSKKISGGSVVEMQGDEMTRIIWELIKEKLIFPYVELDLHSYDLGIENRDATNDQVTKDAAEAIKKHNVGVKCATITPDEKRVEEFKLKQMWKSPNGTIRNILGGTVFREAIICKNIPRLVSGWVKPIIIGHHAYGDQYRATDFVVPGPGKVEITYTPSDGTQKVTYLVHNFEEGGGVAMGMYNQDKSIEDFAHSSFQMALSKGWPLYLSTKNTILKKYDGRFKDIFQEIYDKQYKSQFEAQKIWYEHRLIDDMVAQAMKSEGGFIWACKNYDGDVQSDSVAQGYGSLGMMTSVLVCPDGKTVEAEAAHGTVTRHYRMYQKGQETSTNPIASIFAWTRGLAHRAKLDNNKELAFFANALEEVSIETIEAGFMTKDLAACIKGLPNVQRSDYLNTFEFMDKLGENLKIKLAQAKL
mutated isocitrate dehydrogenase (mIDH) protein, LN229 R132H cells, sequence (O75874 whole entry R132H): as above

In the case of `COc1cc2c(cc1C(=O)O)nc(Cc1ccc(OC(F)(F)F)cc1)n2[C@@H]1C[C@H](C)CC(C)(C)C1` (racemic) [Example 2-45], the IC50 in assay [1] was found to be 30 nM; in assay [2], 160 nM.
On the same counts, the results for `CC1(C)CC(n2c(Cc3ccc(OC(F)(F)F)cc3)nc3c(F)c(CCC(=O)O)ccc32)CC(C)(C)C1` [Example 2-52, 3-{4-fluoro-1-(3,3,5,5-tetramethylcyclohexyl)-2-[4-(trifluoromethoxy)benzyl]-1H-benzimidazol-5-yl}Propanoic Acid] are 80 nM and 1800 nM.
In the same order, the values of `Cc1cc2c(cc1C(=O)O)nc(Cc1ccc(OC(F)(F)F)cc1)n2[C@@H]1C[C@H](C)CC(C)(C)C1` (stereo in doubt) [Example 2-44] are 70 nM and 170 nM.
In the same order, the values of `CC(C)Oc1ccc(Cc2nc3cc(C(=O)O)ccc3n2[C@H]2C[C@@H](C)CC(C)(C)C2)cc1` (stereo in doubt) [Example 2-32-2] are 300 nM and 2500 nM.
For the compound `CC(C)Oc1ccc(Cc2nc3cc(C(=O)O)ccc3n2[C@@H]2C[C@H](C)CC(C)(C)C2)cc1` (stereo in doubt) [Example 2-32], the IC50 in assay [1] stood at 250 nM; in assay [2] it was 2700 nM.
On the same counts, the results for `CC(C)Oc1cc2c(cc1C(=O)O)nc(Cc1ccc(OC(F)(F)F)cc1)n2[C@@H]1C[C@H](C)CC(C)(C)C1` (stereo in doubt) [Example 2-46-1] are 120 nM and 600 nM.
On the same counts, the results for `Cc1cc2c(cc1C(=O)O)nc(Cc1ccc(OC(F)(F)F)cc1)n2[C@@H]1C[C@H](C)CC(C)(C)C1` (stereo in doubt) [Example 2-44-1] are 20 nM and 400 nM.
In the same order, the values of `COc1cc2c(cc1CCC(=O)O)nc(Cc1ccc(OC(F)(F)F)cc1)n2[C@H]1C[C@@H](C)CC(C)(C)C1` (stereo in doubt) [Example 2-50-2] are 20 nM and 380 nM.
On to `COc1cc2c(cc1C(=O)O)nc(Cc1ccc(OC(F)(F)F)cc1)n2[C@H]1C[C@@H](C)CC(C)(C)C1` (stereo in doubt) [Example 2-45-2], for which the results for the IC50 in assay [1] and in assay [2] were 20 nM and 120 nM, respectively.
With `Cc1cc2c(cc1C(=O)O)nc(Cc1ccc(OC(F)(F)F)cc1)n2[C@H]1C[C@@H](C)CC(C)(C)C1` (stereo in doubt) [Example 2-44-2], the values for the IC50 in assay [1] and in assay [2] were 130 nM and 2600 nM, respectively.
In the same order, the values of `COC(=O)c1cc2nc(Cc3ccc(OC(F)(F)F)cc3)n([C@H]3C[C@@H](C)CC(C)(C)C3)c2cc1C` (racemic) [Example 2-18, (±) methyl 6-methyl-2-[4-(trifluoromethoxy)benzyl]-1-[(cis)-3,3,5-trimethylcyclohexyl]-1H-benzimidazole-5-carboxylate] are 150 nM and 1800 nM.
In the same order, the values of `COc1cc2c(cc1C(=O)O)nc(Cc1ccc(OC(F)(F)F)cc1)n2[C@@H]1C[C@H](C)CC(C)(C)C1` (single isomer, unassigned) [Example 2-45-1] are 300 nM and 1600 nM.
On the same counts, the results for `COC(=O)c1ccc2c(c1)nc(Cc1ccc(C(C)C)cc1)n2[C@H]1C[C@@H](C)CC(C)(C)C1` (racemic) [Example 2-7, (±) methyl 2-[4-(propan-2-yl)benzyl]-1-[(cis)-3,3,5-trimethylcyclohexyl]-1H-benzimidazole-5-carboxylate] are 330 nM and 3000 nM.
Take `COC(=O)c1cc2nc(Cc3ccc(OC(F)(F)F)cc3)n([C@H]3C[C@@H](C)CC(C)(C)C3)c2cc1C` (single isomer, unassigned) [Example 2-18-1, methyl 6-methyl-2-[4-(trifluoromethoxy)benzyl]-1-[(cis)-3,3,5-trimethylcyclohexyl]-1H-benzimidazole-5-carboxylate]: the IC50 in assay [1] came out at 140 nM; in assay [2], 2600 nM.
In the same order, the values of `COc1cc2c(cc1CCC(=O)O)nc(Cc1ccc(OC(F)(F)F)cc1)n2[C@@H]1C[C@H](C)CC(C)(C)C1` (single isomer, unassigned) [Example 2-50-1] are 200 nM and 3600 nM.
In the same order, the values of `Cc1cc2c(cc1CCC(=O)O)nc(Cc1ccc(OC(F)(F)F)cc1)n2[C@@H]1C[C@H](C)CC(C)(C)C1` (stereo in doubt) [Example 2-49] are 80 nM and 280 nM.

What is called IC50 is the concentration needed to halve the response being measured.
